Experimental data reported in ChEMBL document CHEMBL1671626, “In vitro profiling of ceftaroline against a collection of recent bacterial clinical isolates from across the United States” (2008).
Converted amounts (≈) assume the structure as drawn.

How the values were obtained:
Assay type in all cases: functional
[1] = system: Streptococcus agalactiae; test: Antibacterial activity against erythromycin-nonsusceptible Streptococcus agalactiae assessed as susceptible isolates by CLSI M7-A7 broth microdilution method
[2] = system: Staphylococcus aureus; test: Antibacterial activity against methicillin-resistant Staphylococcus aureus by CLSI M7-A7 broth microdilution method
[3] = system: Streptococcus viridans; test: Antibacterial activity against penicillin-nonsusceptible Streptococcus viridans by CLSI M7-A7 broth microdilution method
[4] = system: Enterococcus faecalis; test: Antibacterial activity against vancomycin-susceptible Enterococcus faecalis assessed as susceptible isolates by CLSI M7-A7 broth microdilution method
[5] = system: Streptococcus viridans; test: Antibacterial activity against penicillin-nonsusceptible Streptococcus viridans assessed as susceptible isolates by CLSI M7-A7 broth microdilution method
[6] = system: Enterococcus faecium; test: Antibacterial activity against vancomycin-resistant Enterococcus faecium assessed as susceptible isolates by CLSI M7-A7 broth microdilution method
[7] = system: Staphylococcus aureus; test: Antibacterial activity against methicillin-resistant Staphylococcus aureus assessed as susceptible isolates by CLSI M7-A7 broth microdilution method
[8] = system: Staphylococcus aureus; test: Antibacterial activity against methicillin-susceptible Staphylococcus aureus by CLSI M7-A7 broth microdilution method
[9] = system: Streptococcus agalactiae; test: Antibacterial activity against erythromycin-nonsusceptible Streptococcus agalactiae by CLSI M7-A7 broth microdilution method
[10] = system: Streptococcus pyogenes; test: Antibacterial activity against erythromycin-nonsusceptible Streptococcus pyogenes by CLSI M7-A7 broth microdilution method
[11] = system: Streptococcus viridans; test: Antibacterial activity against penicillin-susceptible Streptococcus viridans by CLSI M7-A7 broth microdilution method
[12] = system: Staphylococcus aureus; test: Antibacterial activity against methicillin-susceptible Staphylococcus aureus assessed as susceptible isolates by CLSI M7-A7 broth microdilution method
[13] = system: Streptococcus pneumoniae; test: Antibacterial activity against penicillin-resistant Streptococcus pneumoniae by CLSI M7-A7 broth microdilution method
[14] = system: Enterococcus faecium; test: Antibacterial activity against vancomycin-resistant Enterococcus faecium assessed as resistant isolates by CLSI M7-A7 broth microdilution method
[15] = system: Enterococcus faecium; test: Antibacterial activity against vancomycin-resistant Enterococcus faecium by CLSI M7-A7 broth microdilution method
[16] = system: Staphylococcus aureus; test: Antibacterial activity against coagulase-negative and oxacillin-resistant Staphylococcus aureus by CLSI M7-A7 broth microdilution method
[17] = system: Streptococcus viridans; test: Antibacterial activity against penicillin-nonsusceptible Streptococcus viridans assessed as resistant isolates by CLSI M7-A7 broth microdilution method
[18] = system: Streptococcus pyogenes; test: Antibacterial activity against erythromycin-susceptible Streptococcus pyogenes by CLSI M7-A7 broth microdilution method
[19] = system: Staphylococcus aureus; test: Antibacterial activity against coagulase-negative and oxacillin-susceptible Staphylococcus aureus by CLSI M7-A7 broth microdilution method
[20] = system: Enterococcus faecalis; test: Antibacterial activity against vancomycin-resistant Enterococcus faecalis assessed as resistant isolates by CLSI M7-A7 broth microdilution method
[21] = system: Streptococcus pyogenes; test: Antibacterial activity against erythromycin-nonsusceptible Streptococcus pyogenes assessed as susceptible isolates by CLSI M7-A7 broth microdilution method
[22] = system: Staphylococcus aureus; test: Antibacterial activity against coagulase-negative and oxacillin-resistant Staphylococcus aureus assessed as susceptible isolates by CLSI M7-A7 broth microdilution method
[23] = system: Staphylococcus aureus; test: Antibacterial activity against coagulase-negative and oxacillin-susceptible Staphylococcus aureus assessed as susceptible isolates by CLSI M7-A7 broth microdilution method
[24] = system: Streptococcus pneumoniae; test: Antibacterial activity against penicillin-susceptible Streptococcus pneumoniae by CLSI M7-A7 broth microdilution method
[25] = system: Streptococcus viridans; test: Antibacterial activity against penicillin-susceptible Streptococcus viridans assessed as susceptible isolates by CLSI M7-A7 broth microdilution method
[26] = system: Enterococcus faecalis; test: Antibacterial activity against vancomycin-susceptible Enterococcus faecalis assessed as resistant isolates by CLSI M7-A7 broth microdilution method
[27] = system: Streptococcus agalactiae; test: Antibacterial activity against erythromycin-susceptible Streptococcus agalactiae assessed as susceptible isolates by CLSI M7-A7 broth microdilution method
[28] = system: Enterococcus faecalis; test: Antibacterial activity against vancomycin-resistant Enterococcus faecalis by CLSI M7-A7 broth microdilution method
[29] = system: Enterococcus faecalis; test: Antibacterial activity against vancomycin-susceptible Enterococcus faecalis by CLSI M7-A7 broth microdilution method
[30] = system: Streptococcus agalactiae; test: Antibacterial activity against erythromycin-susceptible Streptococcus agalactiae by CLSI M7-A7 broth microdilution method
[31] = system: Streptococcus pyogenes; test: Antibacterial activity against erythromycin-susceptible Streptococcus pyogenes assessed as susceptible isolates by CLSI M7-A7 broth microdilution method
[32] = system: Moraxella catarrhalis; test: Antibacterial activity against beta lactamase-positive Moraxella catarrhalis by CLSI M7-A7 broth microdilution method
[33] = system: Staphylococcus aureus; test: Antibacterial activity against coagulase-negative and oxacillin-resistant Staphylococcus aureus assessed as resistant isolates by CLSI M7-A7 broth microdilution method
[34] = system: Staphylococcus aureus; test: Antibacterial activity against methicillin-resistant Staphylococcus aureus assessed as resistant isolates by CLSI M7-A7 broth microdilution method
[35] = system: Staphylococcus aureus; test: Antibacterial activity against coagulase-negative and oxacillin-susceptible Staphylococcus aureus assessed as resistant isolates by CLSI M7-A7 broth microdilution method
[36] = system: Staphylococcus aureus; test: Antibacterial activity against methicillin-susceptible Staphylococcus aureus assessed as resistant isolates by CLSI M7-A7 broth microdilution method
[37] = system: Pasteurella multocida; test: Antibacterial activity against Pasteurella multocida by CLSI M7-A7 broth microdilution method

CCCCCCCCCC(=O)N[C@@H](Cc1c[nH]c2ccccc12)C(=O)N[C@H](CC(N)=O)C(=O)N[C@@H](CC(=O)O)C(=O)N[C@@H]1C(=O)NCC(=O)N[C@@H](CCCN)C(=O)N[C@@H](CC(=O)O)C(=O)N[C@H](C)C(=O)N[C@@H](CC(=O)O)C(=O)NCC(=O)N[C@H](CO)C(=O)N[C@@H]([C@H](C)CC(=O)O)C(=O)N[C@@H](CC(=O)c2ccccc2N)C(=O)O[C@@H]1C was tested, and the Activity [1] was 100%, the MIC50 [2] was 0.25 µg/mL (≈ 0.154 µM) and the MIC90 [2] was 0.5 µg/mL (≈ 0.309 µM). It also gave an MIC50 [3] of 0.25 µg/mL (≈ 0.154 µM), an MIC90 [3] of 0.5 µg/mL (≈ 0.309 µM) and an Activity [4] of 100%. For the same compound, the Activity [5] was 100%, the Activity [6] was 100% and the Activity [7] was 99.2%. The MIC50 [8] was 0.25 µg/mL (≈ 0.154 µM), the MIC90 [8] was 0.5 µg/mL (≈ 0.309 µM) and the MIC50 [9] was 0.12 µg/mL (≈ 0.074 µM). It also gave an MIC90 [9] of 0.25 µg/mL (≈ 0.154 µM), an MIC [10] of at most 0.03 µg/mL and an MIC50 [10] of at most 0.03 µg/mL. It also gave an MIC90 [10] of 0.25 µg/mL (≈ 0.154 µM), an MIC50 [11] of 0.25 µg/mL (≈ 0.154 µM) and an MIC90 [11] of 0.5 µg/mL (≈ 0.309 µM). It also gave an Activity [12] of 99.4%, an MIC50 [13] of 0.06 µg/mL (≈ 0.037 µM) and an MIC90 [13] of 0.12 µg/mL (≈ 0.074 µM). The Activity [14] was 0%, the MIC50 [15] was 2 µg/mL (≈ 1.23 µM) and the MIC90 [15] was 4 µg/mL (≈ 2.47 µM). It also gave an MIC50 [16] of 0.5 µg/mL (≈ 0.309 µM), an MIC90 [16] of 0.5 µg/mL (≈ 0.309 µM) and an Activity [17] of 0%. For the same compound, the MIC [18] was at most 0.03 µg/mL, the MIC50 [18] was at most 0.03 µg/mL and the MIC90 [18] was 0.06 µg/mL (≈ 0.037 µM). For the same compound, the MIC50 [19] was 0.25 µg/mL (≈ 0.154 µM), the MIC90 [19] was 0.5 µg/mL (≈ 0.309 µM) and the Activity [20] was 0%. The Activity [21] was 100%, the Activity [22] was 99.7% and the Activity [23] was 100%. For the same compound, the MIC50 [24] was 0.06 µg/mL (≈ 0.037 µM), the MIC90 [24] was 0.12 µg/mL (≈ 0.074 µM) and the Activity [25] was 100%. It also gave an Activity [26] of 0%, an Activity [27] of 100% and an MIC50 [28] of 0.5 µg/mL (≈ 0.309 µM). For the same compound, the MIC90 [28] was 1 µg/mL (≈ 0.617 µM), the MIC50 [29] was 1 µg/mL (≈ 0.617 µM) and the MIC90 [29] was 1 µg/mL (≈ 0.617 µM). It also gave an MIC50 [30] of 0.12 µg/mL (≈ 0.074 µM), an MIC90 [30] of 0.12 µg/mL (≈ 0.074 µM) and an Activity [31] of 100%.

For CC1(C)S[C@@H]2[C@H](NC(=O)Cc3ccccc3)C(=O)N2[C@H]1C(=O)O [PENICILLIN G], the Activity [1] was 95.2%, the MIC50 [2] was over 16 µg/mL and the MIC50 [32] was 4 µg/mL (≈ 12 µM). The MIC90 [32] was 16 µg/mL (≈ 47.8 µM), the MIC50 [3] was 0.5 µg/mL (≈ 1.5 µM) and the MIC90 [3] was 8 µg/mL (≈ 23.9 µM). For the same compound, the Activity [4] was 100%, the Activity [33] was 97.7% and the Activity [34] was 99.5%. It also gave an Activity [5] of 0%, an Activity [6] of 0% and an Activity [7] of 0.5%. The MIC50 [8] was 4 µg/mL (≈ 12 µM), the MIC90 [8] was over 16 µg/mL and the MIC [9] was at most 0.12 µg/mL. It also gave an MIC50 [9] of at most 0.12 µg/mL, an MIC90 [9] of at most 0.12 µg/mL and an MIC [10] of at most 0.12 µg/mL. It also gave an MIC50 [10] of at most 0.12 µg/mL, an MIC90 [10] of at most 0.12 µg/mL and an Activity [35] of 67.7%. For the same compound, the MIC [11] was at most 0.12 µg/mL, the MIC50 [11] was at most 0.12 µg/mL and the MIC90 [11] was at most 0.12 µg/mL. It also gave an Activity [12] of 16.7%, an Activity [14] of 100% and an MIC [15] of over 16 µg/mL. It also gave an MIC50 [15] of over 16 µg/mL, an MIC90 [15] of over 16 µg/mL and an MIC50 [16] of 8 µg/mL (≈ 23.9 µM). The Activity [17] was 28.6%, the MIC [18] was at most 0.12 µg/mL and the MIC50 [18] was at most 0.12 µg/mL. For the same compound, the MIC90 [18] was at most 0.12 µg/mL, the MIC50 [19] was 0.5 µg/mL (≈ 1.5 µM) and the MIC90 [19] was 2 µg/mL (≈ 5.98 µM). The Activity [20] was 0%, the Activity [21] was 100% and the Activity [22] was 2.3%. The Activity [23] was 32.3%, the Activity [25] was 100% and the Activity [26] was 0%. It also gave an Activity [27] of 100%, an Activity [36] of 83.3% and an MIC50 [28] of 2 µg/mL (≈ 5.98 µM). It also gave an MIC90 [28] of 4 µg/mL (≈ 12 µM), an MIC50 [37] of at most 0.12 µg/mL and an MIC90 [37] of 0.25 µg/mL (≈ 0.748 µM). For the same compound, the MIC50 [29] was 2 µg/mL (≈ 5.98 µM), the MIC90 [29] was 4 µg/mL (≈ 12 µM) and the MIC [30] was at most 0.12 µg/mL. For the same compound, the MIC50 [30] was at most 0.12 µg/mL, the MIC90 [30] was at most 0.12 µg/mL and the Activity [31] was 98.9%.
